How the values were obtained:
mouse [1] = conditions: Subchronic oral toxicity in rodents, cd1, Gavage/Intubation, dose end: 13 week, group: systemic
rat [2] = conditions: Subchronic oral toxicity in rodents, sprague dawley, Gavage/Intubation, dose end: 13 week, group: systemic
rat [3] = conditions: Sub-acute repeat dose toxicity; sprague dawley; Oral; Gavage/Intubation; dose end: 6 week; group: systemic; systemic / organ weight / liver / absolute + systemic / organ weight / liver / relative to body weight + systemic / pathology microscopic / …
primate = conditions: Subchronic oral toxicity in nonrodent, macaque, Gavage/Intubation, dose end: 7 week, group: systemic, systemic / clinical chemistry / alkaline phosphatase (alp/alk) / alkaline phosphatase (alp/alk) + systemic / organ weight / liver / absolute…
rat [4] = conditions: Subchronic oral toxicity in rodents, wistar, Gavage/Intubation, dose end: 13 week, group: systemic
dog [5] = conditions: Subchronic oral toxicity in nonrodent, beagle, Gavage/Intubation, dose end: 13 week, group: systemic
rat [6] = conditions: Subchronic oral toxicity in rodents, sprague dawley, Feed, dose end: 90 day, group: systemic, systemic / pathology microscopic / kidney / basophilia + systemic / pathology microscopic / kidney / dilatation + systemic / pathology …
rat [7] = conditions: Combined chronic toxicity/carcinogenicity, sprague dawley, Oral, Feed, dose end: 2 year, group: systemic
dog [8] = conditions: Subchronic oral toxicity in nonrodent, beagle, Feed, dose end: 13 week, group: systemic, systemic / in life observation / body weight / body weight + systemic / in life observation / body weight / body weight gain + systemic / …
rat [9] = conditions: Prenatal developmental toxicity study, sprague dawley, Oral, Gavage/Intubation, dose end: 15 GD
rat [10] = conditions: Chronic toxicity; sprague dawley; Oral; Gavage/Intubation; dose end: 6 month; group: systemic; systemic / clinical chemistry / creatinine / creatinine
dog [11] = conditions: Chronic toxicity, beagle, Oral, Gavage/Intubation, dose end: 52 week, group: systemic
rat [12] = conditions: Subchronic oral toxicity in rodents, sprague dawley, Feed, dose end: 13 week, group: systemic
dog [13] = conditions: Subchronic oral toxicity in nonrodent, beagle, Gavage/Intubation, dose end: 6 month, group: systemic
mouse [14] = conditions: Subchronic oral toxicity in rodents, cd1, Feed, dose end: 14 week, group: systemic
[15] = systemic / clinical chemistry / albumin / albumin + systemic / clinical chemistry / protein / protein + systemic / hematology / platelet / …
[16] = systemic / pathology microscopic / adrenal gland / vacuolization + systemic / pathology microscopic / liver / eosinophilic focus + systemic…
[17] = systemic / clinical chemistry / [other] / [other] + systemic / clinical chemistry / alanine aminotransferase (alt/sgpt) / alanine …
[18] = systemic / hematology / mean corpuscular (cell) volume (mcv) / mean corpuscular (cell) volume (mcv) + systemic / hematology / mean …
[19] = systemic / clinical chemistry / albumin / albumin + systemic / clinical chemistry / chloride / chloride + systemic / clinical chemistry / …
[20] = systemic / clinical chemistry / albumin / albumin + systemic / clinical chemistry / protein / protein + systemic / in life observation / …
[21] = systemic / clinical chemistry / alanine aminotransferase (alt/sgpt) / alanine aminotransferase (alt/sgpt) + systemic / in life observation…
[22] = systemic / organ weight / adrenal gland / absolute
[23] = systemic / pathology microscopic / kidney / dilatation + systemic / pathology microscopic / kidney / fibrosis + systemic / clinical …
[24] = group: developmental, developmental / developmental malformation / bone / incomplete ossification + developmental / developmental malformation / interparietal / …
[25] = group: maternal, systemic / in life observation / food consumption / food consumption + systemic / pathology gross / kidney / enlarged
[26] = systemic / organ weight / heart / absolute
[27] = systemic / organ weight / heart / absolute + systemic / clinical chemistry / alkaline phosphatase (alp/alk) / alkaline phosphatase (alp/alk…
[28] = systemic / clinical chemistry / creatinine / creatinine
[29] = systemic / clinical chemistry / creatinine / creatinine + systemic / hematology / reticulocyte / reticulocyte + systemic / organ weight / …
[30] = systemic / organ weight / adrenal gland / relative to body weight + systemic / organ weight / heart / absolute + systemic / clinical …
[31] = systemic / clinical chemistry / creatinine / creatinine + systemic / hematology / hematocrit (hct) / hematocrit (hct) + systemic / …

Compound `CCc1cc(SCc2sc(-c3ccc(C(F)(F)F)cc3)nc2CN2CCN(c3ccc(OC)cc3)CC2)ccc1OCC(=O)O` has an LOAEL (mouse [1]; [15]) greater than 1000 mg/kg/day, an NOAEL (mouse [1]; [15]) of no less than 1000 mg/kg/day and an LEL (mouse [1]; [16]) of 10 mg/kg/day. For the same compound, the NEL (mouse [1]; [16]) was less than 10 mg/kg/day, the LOAEL (rat [2]; [17]) was greater than 1000 mg/kg/day and the NOAEL (rat [2]; [17]) was no less than 1000 mg/kg/day. For the same compound, the LEL (rat [2]; [18]) was 30 mg/kg/day, the NEL (rat [2]; [18]) was less than 30 mg/kg/day and the LEL (rat [3]) was 5 mg/kg/day. For the same compound, the LOAEL (rat [3]) was greater than 100 mg/kg/day, the NEL (rat [3]) was less than 5 mg/kg/day and the NOAEL (rat [3]) was no less than 100 mg/kg/day. It also gave an LEL (primate) of 5 mg/kg/day, an LOAEL (primate) greater than 100 mg/kg/day and an NEL (primate) of less than 5 mg/kg/day. For the same compound, the NOAEL (primate) was no less than 100 mg/kg/day.

For `CCN(C(=O)c1cc(C)cc(OC[C@H](C)Nc2ccncc2)c1)C(C)C.Cc1ccc(S(=O)(=O)O)cc1`, the LOAEL (rat [4]; [19]) was greater than 40 mg/kg/day, the NOAEL (rat [4]; [19]) was no less than 40 mg/kg/day and the LEL (rat [4]; [20]) was 12 mg/kg/day. It also gave an NEL (rat [4]; [20]) of less than 12 mg/kg/day, an LOAEL (dog [5]; [21]) greater than 20 mg/kg/day and an NOAEL (dog [5]; [21]) of no less than 20 mg/kg/day. For the same compound, the LEL (dog [5]; [22]) was 4 mg/kg/day and the NEL (dog [5]; [22]) was less than 4 mg/kg/day.

`CCNc1nc(NC(C)C)[nH]c(=O)n1` [2-Hydroxyatrazine] showed an LEL (rat [6]) of 18.9 mg/kg/day, an LOAEL (rat [6]) of 18.9 mg/kg/day and an NEL (rat [6]) of 6.3 mg/kg/day. It also gave an NOAEL (rat [6]) of 6.3 mg/kg/day, an LOAEL (rat [7]; systemic / pathology microscopic / kidney / dilatation + systemic / pathology microscopic / kidney / fibrosis) of 7.75 mg/kg/day and an NEL (rat [7]; [23]) of 0.962 mg/kg/day. The NOAEL (rat [7]; [23]) was 0.962 mg/kg/day, the LEL (rat [7]; systemic / pathology microscopic / kidney / dilatation + systemic / pathology microscopic / kidney / fibrosis + systemic / pathology gross…) was 7.75 mg/kg/day and the LEL (dog [8]) was 59.6 mg/kg/day. The LOAEL (dog [8]) was 59.6 mg/kg/day, the NEL (dog [8]) was 5.8 mg/kg/day and the NOAEL (dog [8]) was 5.8 mg/kg/day. The LEL (rat [9]; [24]) was 125 mg/kg/day, the LOAEL (rat [9]; [24]) was 125 mg/kg/day and the NEL (rat [9]; [24]) was 25 mg/kg/day. The NOAEL (rat [9]; [24]) was 25 mg/kg/day, the LOAEL (rat [9]; group: maternal, systemic / in life observation / food consumption / food consumption) was 125 mg/kg/day and the LEL (rat [9]; [25]) was 125 mg/kg/day. The NEL (rat [9]; [25]) was 25 mg/kg/day and the NOAEL (rat [9]; [25]) was 25 mg/kg/day.

With `CC(=O)c1ccc2c(c1)[C@H](NC(=O)c1ccc(F)cc1)[C@@H](O)C(C)(C)O2` [Carabersat] the LEL (rat [10]) was 200 mg/kg/day, the LOAEL (rat [10]) was greater than 2000 mg/kg/day and the NEL (rat [10]) was 20 mg/kg/day. For the same compound, the NOAEL (rat [10]) was no less than 2000 mg/kg/day, the LEL (dog [11]; [26]) was 20 mg/kg/day and the NEL (dog [11]; [26]) was less than 20 mg/kg/day. It also gave an LOAEL (dog [11]; [27]) greater than 1000 mg/kg/day, an NOAEL (dog [11]; [27]) of no less than 1000 mg/kg/day and an LEL (rat [12]; [28]) of 20 mg/kg/day. For the same compound, the NEL (rat [12]; [28]) was less than 20 mg/kg/day, the LOAEL (rat [12]; [29]) was greater than 2000 mg/kg/day and the NOAEL (rat [12]; [29]) was no less than 2000 mg/kg/day. The LEL (dog [13]; systemic / organ weight / adrenal gland / relative to body weight + systemic / clinical chemistry / alkaline phosphatase (alp/alk) / …) was 200 mg/kg/day, the NEL (dog [13]; systemic / organ weight / adrenal gland / relative to body weight + systemic / organ weight / heart / absolute) was 20 mg/kg/day and the LOAEL (dog [13]; [30]) was greater than 1000 mg/kg/day. For the same compound, the NOAEL (dog [13]; [30]) was no less than 1000 mg/kg/day, the LEL (mouse [14]; [28]) was 200 mg/kg/day and the LOAEL (mouse [14]; [31]) was greater than 2000 mg/kg/day. The NEL (mouse [14]; [31]) was 20 mg/kg/day and the NOAEL (mouse [14]; [31]) was no less than 2000 mg/kg/day.

From EPA's ToxRefDB 2
